One series deals with human NK cells. Particulars: same concentration of H-7; cited from earlier work.
For series [1], the system named is NCC (lysis of IM-9 target cells). Put plainly: NCC cytotoxicity (51Cr release) after treatment with protein kinase inhibitors. Particulars: for inhibition at 30 µM / inhibition at 60 µM: E:T 80:1. In kind it is cell-based, channel catfish (Ictalurus punctatus). How it is done:
To prepare NCC, fish were lightly anesthetized with ethyl m-aminobenzoate (Sigma Chemical Co.) in water and sacrificed.
IM-9 target cells were used in cytotoxicity assays. […] Cells were grown in stationary suspension cultures and were maintained at approximately 1×10^6 cells/ml. […]

Series [2] relates to cyclic nucleotide dependent kinases. The conditions noted are these: cited from earlier work.
The test system of series [3] is NCC (lysis of IM-9 target cells). Put plainly: Costimulation assay: NCC cytotoxicity (51Cr release) with A23187 or mab 5C6. In kind it is cell-based, channel catfish (Ictalurus punctatus). Particulars: for Percentage specific release: E:T 40:1, 10^-4 M A23187, 60 μM H7 and HA1004, 0.5 μg/ml genistein, 1:3 dilution of tissue culture supernatant, media control 20.6; for influence of pretreatment on A23187 activation: pretreatment prior to A23187; for activity at 0.5 µg/mL: Ictalurus punctatus, IM-9, 2 h. How it is done: Incubation was two hours and cells were either washed or not washed before addition to ^51 Cr-labeled IM-9 target cells (4- to 6-hour cytotoxicity assays).
To further investigate this inhibitory effect, a costimulus experiment was done using a calcium ionophore, e.g., A23187, combined with the various inhibitors and activators of NCC activity. Pretreatment of NCC with A23187 produced an almost identical increase in cytotoxicity regardless of the identity of the first treatment.
In a second costimulus experiment mab 5C6 was used (instead of A23187) to activate cytotoxicity (Table 6).

Series [4] has as its system protein tyrosine kinase (PTK). The conditions noted are these: NK cells; cited from earlier work.
The test system of series [5] is NCC membrane proteins (tyrosine phosphorylation). Put plainly: Tyrosine phosphorylation of NCC membrane proteins following mab 5C6 activation (Western blot). In kind it is cell-based, channel catfish (Ictalurus punctatus). The conditions noted are these: NCC pretreated two hours with inhibitor; 100 μg/ml genistein or 30 μM HA1004. The method, then: FIG. 1. Tyrosine phosphorylation of NCC membrane proteins following activation by mab 5C6. NCC were resuspended at 500×10^6 /ml and 200 μl aliquots were incubated at 37° C. with either 125 μl ammonium sulfate precipitate mab 5C6 (left panel) or an isotype control (right panel). At the indicated timed intervals, the reactions were terminated by addition of 325 μl of 2×lysis buffer. Lysates were immunoprecipitated with mab 4G10, electrophoresed on 11% SDS-PAGE, blotted onto nitrocellulose, and probed with mab 4G10. Molecular weight markers are indicated by the arrows.
FIG. 2. Tyrosine phosphorylation of Percoll-enriched NCC. Fish NCC were centrifuged for 15 minutes at 500 g on a 45.5% Percoll cushion. The cells at the interphase were harvested, washed, and treated with mab 5C6 for 0 and 20 sec before addition of 2×lysis buffer. Lysates were electrophoresed, blotted on nitrocellulose, and probed with mab 4G10.
FIG. 3. Effects of genistein on tyrosine phosphorylation in fish NCC. Fish NCC were incubated with media, genistein (100 μg/ml), or HA1004 (30 μM) for two hours prior to activation for zero time with mab 5C6 (left lane) and 40 sec with either mab 5C6 (middle lane) or an irrelevant IgM isotype control (right lane). Reactions were stopped by addition of lysis buffer and lysates were processed as explained in the legends to FIGS. 1 and 2. […]
A general note: Immunoblotting shows a protein as a band on a membrane.

Series [6] concerns serine/threonine phosphorylation. Particulars: NK cells; cited from earlier work.
The subject of another series is NCC. The conditions noted are these: cited from earlier work.

Entries after “also recorded” stand apart in the source; their conditions may differ. Where two headings read alike, the source gives them in different places.

On to `CC1CNCCN1S(=O)(=O)c1cccc2cnccc12.Cl.Cl` (stereo not shown) [H-7, 1-(5-isoquinolinesulfonyl)-2-methylpiperazine di-HCl], for which the “inhibition of human NK cells” value in the series with human NK cells is given as 60-90%. Further, the inhibition at 30 µM in series [1] (Ictalurus punctatus, 1 h, read-out: Percentage inhibition (NCC lysis of IM-9), 30 μM, 60 min) was 12.5%; in series [1] (Ictalurus punctatus, 2 h, read-out: Percentage inhibition (NCC lysis of IM-9), 30 μM, 120 min), 31%; in series [1] (Ictalurus punctatus, 3 h, read-out: Percentage inhibition (NCC lysis of IM-9), 30 μM, 180 min/wash), 34.2%; in series [1] (Ictalurus punctatus, 3 h, read-out: Percentage inhibition (NCC lysis of IM-9), 30 μM, 180 min), 37.8%. Further, the inhibition at 60 µM in series [1] (Ictalurus punctatus, 1 h, read-out: Percentage inhibition (NCC lysis of IM-9), 60 μM, 60 min) turned out to be 10.2%; in series [1] (Ictalurus punctatus, 2 h, read-out: Percentage inhibition (NCC lysis of IM-9), 60 μM, 120 min), 12.6%; in series [1] (Ictalurus punctatus, 3 h, read-out: Percentage inhibition (NCC lysis of IM-9), 60 μM, 180 min/wash), 34.5%; in series [1] (Ictalurus punctatus, 3 h, read-out: Percentage inhibition (NCC lysis of IM-9), 60 μM, 180 min), 35.7%. In addition, the “level of inhibition of NCC activity” value in series [1] (summary of Table 1) was “approximately 35%”. In addition, in series [1] (washed prior to addition of target cells), the “effect of removal (washing) of inhibitor on cytotoxicity” value is recorded as “did not substantially affect the cytotoxicity”. In series [2], the “inhibition of cyclic nucleotide dependent kinases” value is listed as “to a lesser extent it inhibits cyclic nucleotide kinases”. The “Percentage of control (E:T ratio) 40%” value in series [3] (4 × 10^6 NCC/ml, mabs 1:50 dilution, H-7, HA1004 60 μM, genistein 0.5 μg/ml, 120 min) came to 37.5%. Moreover, the Percentage specific release in series [3] was determined as 9.1%. Moreover, in series [3] (mabs 1:50 dilution, H-7, HA1004 60 μM, genistein 0.5 μg/ml, 120 min), the “Percentage of control (E:T ratio) 20%” value is reported as 53.9%. For the same molecule, the “influence of pretreatment on A23187 activation” value in series [3] (di-HCl) is “did not produce any reductions in A23187 activation; also recorded: did not appear to be additive and did not influence the final level of activation”.

As to `O=c1c(-c2ccc(O)cc2)coc2cc(O)cc(O)c12` [Genistein, genistein], the “inhibition of NCC cytotoxicity” value in series [1] is listed as “almost completely inhibited NCC activity in a dose-dependent fashion”. For the same molecule, the inhibition at 142 µg/mL in series [1] (Ictalurus punctatus, IM-9, 142 μg/ml, read-out: inhibition of cytotoxicity) is ~100%; in series [1] (Ictalurus punctatus, 142.0 μg/ml, E:T 20:1, 6 hours, read-out: Percentage inhibition (NCC lysis of IM-9)) it was 94%. Further, in series [1] (Ictalurus punctatus, 14.2 μg/ml, E:T 20:1, 6 hours, read-out: Percentage inhibition (NCC lysis of IM-9)), the inhibition at 14.2 µg/mL stood at 55.5%. For the same molecule, the inhibition at 28.4 µg/mL in series [1] (Ictalurus punctatus, 28.4 μg/ml, E:T 20:1, 6 hours, read-out: Percentage inhibition (NCC lysis of IM-9)) worked out at 75.9%. In addition, in series [1] (Ictalurus punctatus, 57.0 μg/ml, E:T 20:1, 6 hours, read-out: Percentage inhibition (NCC lysis of IM-9)), the inhibition at 57 µg/mL came out at 64.9%. Moreover, in series [1] (between approximately 14 and approximately 57 μg/ml), the inhibition of cytotoxicity entry is given as “greater than 50%”. Moreover, the “PTK activity” value in series [4] is reported as “inhibit PTK activity”. Besides, the Percentage specific release in series [3] was 11.0%. Also, the activity at 0.5 µg/mL in series [3] (4 × 10^6 NCC/ml, mabs 1:50 dilution, H-7, HA1004 60 μM, genistein 0.5 μg/ml, read-out: Percentage of control (E:T ratio) 40%) stood at 38.9%; in series [3] (mabs 1:50 dilution, H-7, HA1004 60 μM, genistein 0.5 μg/ml, read-out: Percentage of control (E:T ratio) 20%) it was 35.5%. Besides, the “influence of pretreatment on A23187 activation” value in series [3] is “did not produce any reductions in A23187 activation; also recorded: did not appear to be additive and did not influence the final level of activation”. In series [5], the “specific protein phosphorylation after mab 5C6” value is on record as “Specific protein phosphorylation was not observed”. Moreover, the “serine/threonine phosphorylation” value in series [6] is “no effect on serine/threonine phosphorylation”.

As to `CNc1ccc2oc(C[C@H]3O[C@@]4(CC[C@H]3C)O[C@H]([C@H](C)C(=O)c3ccc[nH]3)[C@H](C)C[C@H]4C)nc2c1C(=O)O` [A23187], the “cytotoxicity of NCC (words, prior work)” value in the series on NCC was “activated NCC cytotoxicity and increased "receptor" expression”. For the same molecule, the Percentage specific release in series [3] was determined as 81.0%. The “activation of NCC cytotoxicity” value in series [3] (Table 5) is “strong activation of NCC cytotoxicity”. Moreover, the “ability to overcome kinase inhibitor inhibition of NCC cytotoxicity” value in series [3] (after H-7 or genistein) is recorded as “able to overcome the inhibition produced by treatment of NCC with H-7 or genistein”.

Source of the values: patent publication US5593678A, “Protection of teleost fish” (University of Georgia Research Foundation, priority 1994, dated 1997).
